Results as given in paper PMC6269909, “Investigating the Antioxidant and Acetylcholinesterase Inhibition Activities of Gossypium herbaceam” (Molecules, 2013).
Read-outs that look alike come from different tables or passages of the source.

How the values were obtained:
[1] = DPPH radical scavenging assay; format: biochemical; conditions: Table 2, mean of three replicates, read-out: IC50 for inhibition of DPPH radical formation
Text: (§1) The DPPH radical activity test was used to measure the hydrogen atom or electron donor capacity of the samples to the stable radical DPPH formed in liquid solution. Thus, it measures the capacity of the samples to scavenge free radicals in solution [17]. Proton radical scavenging is an important attribute of antioxidants. […] ABTS, a protonated radical, has characteristic absorbance at 734 nm which decreases with the scavenging of the proton radicals. […]
DPPH is a stable free radical that reacts with compounds that can donate a hydrogen atom. This method is based on the scavenging of DPPH through the addition of a radical species or an antioxidant that decolorizes the DPPH solution. The antioxidant activity is then measured by the extent of decrease in absorption at 515 nm. In brief, a 0.2 mM solution of DPPH in methanol was prepared, and 100 μL of this solution was added to 100 μL of the sample solution in methanol at varying concentrations. The solutions in the 96 well micro plates were shaken well and incubated in the dark for 30 minutes at room temperature. The absorbance was measured at 515 nm. A large decrease in the absorbance of the reaction mixture indicates substantial free radical scavenging activity of the compound. DPPH radical scavenging activity (%) = [(Abscontrol − Abscompound)]/(Abscontrol)] × 100 where Abscontrol is the absorbance of DPPH radical + methanol; Abscompound is the absorbance of DPPH radical + compound/standard.

[2] = ABTS radical scavenging assay; format: biochemical; conditions: Table 2, mean of three replicates, read-out: IC50 for inhibition of ABTS radical formation
Text: as §1
The ABTS radical scavenging method was developed by Rice-Evans and Miller in 1994 and was then modified by Rice-Evants et al. in 1999. The modification is based on the activation of metmyo-globin with hydrogen peroxide in the presence of ABTS^•+ to produce a radical cation. This improved method generates a blue/green ABTS^•+ chromophore via the reaction of ABTS and potassium persulfate and is now widely used. The antioxidant activity is then measured by the decrease in absorption at 734 nm. In brief, ABTS radical cation (ABTS^•+) was produced by reacting ABTS stocking solution with […] potassium persulfate and kept in the dark at room temperature for 12–16 h before use. The samples containing the ABTS^•+ solution were diluted with methanol to obtain an absorbance of 0.700 (±0.02) at 734 nm and equilibrated at 30 °C. The ABTS^•+ solution was freshly prepared for each assay. Different concentrations of compounds (16 μL) were allowed to react with 184 μL of the ABTS^•+ solution and the absorbance was taken at 734 nm after 7 min using spectrophotometer. The ABTS^•+ scavenging capacity of the compound percentage inhibition was calculated using formula: ABTS radical scavenging activity (%) = [(Abscontrol − Abscompound)]/(Abscontrol)] × 100, where Abscontrol is the absorbance of ABTS radical + methanol; Abscompound is the absorbance of ABTS radical + compound/standard.

[3] = Lipid peroxidation assay (TBARS), egg yolk homogenates; format: biochemical; conditions: Table 2; egg yolk homogenate, FeSO4; mean of three replicates; read-out: IC50 for inhibition of peroxidation of lipids, estimated as thiobarbituric acid reactive substances
Method: Lipid peroxidation involves the formation and propagation of lipid radicals with numerous deleterious effects, including destruction of membrane lipids, metabolic disorders and inflammation, and production of malondialdehyde (MDA) is a hallmark of this process. Inhibition of lipid peroxidation was assessed by amount of MDA produced. Lipids in egg yolk undergo rapid nonenzymatic peroxidation in the presence of ferrous sulphate. […] Phenolics present in plant sources have received considerable attention over the past decade because of their potential to prevent lipid peroxidation and diseases associated with it.
A modified thiobarbituric acid-reactive species (TBARS) assay was used to measure the lipid peroxide formed, using egg yolk homogenates as lipid-rich media. Adapted TBARS method was employed to measure the antioxidant capacity. Briefly, egg homogenate (100 μL of 1:25, v/v in phosphate-buffered saline (PBS) PH 7.4) and 10 μL of different concentrations of sample were added to a test tube as well as added 25 mmol/L freshly prepared FeSO4 made up to 300 μL with PBS. The homogenate was incubated at 37 °C for 15 min and then the reaction was stopped by adding 50 μL 15% w/v trichloroacetic acid (TCA) and centrifugation (3,500 rpm) for 15 min. An aliquot of 200 μL from supernatant was mixed with 100 μL thiobarbituric acid (TBA) and heated at 95 °C for 30 min.

[4] = target: T1, Acetylcholinesterase (AChE) type VI-S from electric eel (Electrophorus electricus, UniProt O42275); experiment: biochemical
T1 construct: purchased Sigma (St. Louis, MO, USA)
T1 sequence (O42275 24-633): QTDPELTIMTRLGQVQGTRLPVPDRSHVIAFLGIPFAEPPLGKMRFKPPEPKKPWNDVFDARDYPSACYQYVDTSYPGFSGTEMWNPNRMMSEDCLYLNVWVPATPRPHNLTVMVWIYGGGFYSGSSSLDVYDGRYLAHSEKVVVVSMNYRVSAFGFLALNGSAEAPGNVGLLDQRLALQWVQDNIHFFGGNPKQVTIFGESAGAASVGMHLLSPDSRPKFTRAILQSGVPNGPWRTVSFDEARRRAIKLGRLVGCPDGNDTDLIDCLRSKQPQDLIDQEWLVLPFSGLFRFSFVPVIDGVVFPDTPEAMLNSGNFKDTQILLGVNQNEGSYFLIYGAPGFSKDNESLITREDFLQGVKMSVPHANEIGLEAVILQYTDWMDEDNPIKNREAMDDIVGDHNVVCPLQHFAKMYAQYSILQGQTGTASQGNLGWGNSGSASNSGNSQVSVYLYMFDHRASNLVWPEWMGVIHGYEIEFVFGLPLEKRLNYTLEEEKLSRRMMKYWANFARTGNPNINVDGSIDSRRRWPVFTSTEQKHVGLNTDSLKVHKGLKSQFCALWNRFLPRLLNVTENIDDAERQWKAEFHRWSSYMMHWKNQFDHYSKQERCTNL
Text: Acetylcholinesterase (AChE) type VI-S from electric eel, 5-5′-dithiobis-[2-nitrobenzoicacid] (DTNB), 1-1-diphenyl-2-picrylhydrazyl (DPPH), 2,2'-azinobis-(3-ethylbenzothiazoline-6-sulfonic acid) (ABTS), acetylthiocholine iodide (AChI), dimethyl sulfoxide (DMSO), ferrous sulfate (FeSO4·7H2O), thiobarbituric acid (TBA), trichloroacetic acid (TCA), potassium ferricyanide were obtained from Sigma (St. Louis, MO, USA). L-3-ketothreohexuronic acid lactone (vitamin C) and huperzine A were purchased from the National Institutes for Food and Drug Control, Beijing, China. All the other reagents were of analytical grade.
Inhibition of acetyl cholinesterase activity of samples was measured by the micro-plate assay adapted. AChE inhibitory activity was measured by slightly modifying the spectrophotometric method from the literature which was initially developed by Ellman. Briefly, in this method, 100 μL of […] sodium phosphate buffer (pH = 8.0), 20 μL of DTNB, 20 μL of test solution and 2 μL of AChE solution were added using a multichannel automatic pipette into a 96-well micro plate and incubated for 15 min at 25 °C.

PC12 cells = experiment: tBHP exposure in PC12 cells, cell viability (MTT); format: cell-based, Rat; conditions: for Protection against tBHP-induced cell death in PC12 cells (cell viability, MTT): pre-treated 100 μM for 24 h, then tBHP 200 μM for 3 h, p < 0.05
Method: tBHP caused a reduction in cell viability with an IC50 value for PC12 cells death at 200 μM. PC12 cells were an established model of nerve growth factor (NGF) - induced neurite formation. […] In the control sample, the value of cell viability was set to be 100%.
Rat pheochromocytoma cells (PC12) cells were kindly donated by Professor Dong T. X. (The Hong Kong University of Science and Technology, Hong Kong, China). PC12 cells were maintained in 75 cm culture flasks containing 20 mL of RPMI-1640 media supplemented with 1% FBS, 1% L-glutamine, 1% non-essential amino acids and 1% penicillin/streptomycin. Cells were maintained in an incubator at 37 °C with 5% CO2. Experiments and cell maintenances were performed in a laminar flow hood under sterile conditions. Cells were passaged every 4–5 days and detached from flasks using 1× trypsin EDTA. Cell counts were performed using trypan blue to stain non viable cells, which were excluded from the count. Ninety-six well plates were used for cell viability experiments. The cells were then allowed to equilibrate for 24 h before the experiment.
H2O2 is a well established pro-oxidant in PC12 cells over the concentration range used. tBHP shares some of the same properties of H2O2 but generates a more shallow neurotoxicity response over a wider concentration range than H2O2 in PC12 cells and elicits greater lipid peroxidation. […] For anti-oxidation effect, the cultures were treated with tBHP (200 μM) for 3 h. Cultures were subjected to cell viability test using the colorimetric MTT assay. Purple crystal inside the cells was dissolved by DMSO and measured by absorbance at 570 nm.

[5] = Table 2, mean of three replicates, read-out: IC50 for inhibition of AChE

Compound	IC50 [1] [µM]	IC50 [2] [µM]	IC50 [3] [µM]	IC50 [4] [µM]	IC50 [4, 5] [µM]	Protection against tBHP-induced cell death in PC12 cells (cell viability, MTT) (PC12 cells)	IC50 ([1]; listed as quercetin) [µM]	IC50 ([2]; listed as quercetin) [µM]	IC50 (PC12 cells; reduction in cell viability by tBHP, read-out: IC50 value for PC12 cells death) [µM]
O=c1c(O[C@@H]2O[C@H](CO)[C@H](O)[C@H](O)[C@H]2O)c(-c2ccc(O)c(O)c2)oc2cc(O)cc(O)c12 [Hyperoside]	11.2	113	7.47	94.6					
O=c1c(O[C@@H]2O[C@H](CO)[C@@H](O)[C@H](O)[C@H]2O)c(-c2ccc(O)c(O)c2)oc2cc(O)cc(O)c12 [Isoquercetin]	3.65	26.9	8.81	57					
COc1cc(-c2oc3cc(O[C@@H]4O[C@H](CO)[C@@H](O)[C@H](O)[C@H]4O)cc(O)c3c(=O)c2O)ccc1O [Isorhamnetin-7-O-β-D-glucopyranoside]	1.73	21.8	7.2		55.7				
O=c1c(O)c(-c2ccc(O)cc2)oc2cc(O)cc(O)c12 [Kaempferol]	5.52	41.4				could exert the anti-oxidation effect in protecting the tBHP-induced cell death			
O=c1c(O[C@@H]2O[C@H](CO)[C@@H](O)[C@H](O)[C@H]2O)c(-c2ccc(O)c(O)c2)oc2cc(O[C@@H]3O[C@H](CO)[C@@H](O)[C@H](O)[C@H]3O)cc(O)c12 [Quercetin-3,7-di-O-β-D-glucopyranosid]	5.48	50.8	33.4		67.1				
O=c1c(O)c(-c2ccc(O)c(O[C@@H]3O[C@H](CO)[C@@H](O)[C@H](O)[C@H]3O)c2)oc2cc(O)cc(O)c12 [Quercetin-3′-O-β-D-glucoside]	3.75	34.7	8.9		88.6	could exert the anti-oxidation effect in protecting the tBHP-induced cell death			
O=c1c(O)c(-c2ccc(O)c(O)c2)oc2cc(O)cc(O)c12 [Quercetin]	0.84	19.6	13.1				19.6	0.84	
O=c1c(O)c(-c2ccc(O)c(O)c2)oc2cc(OC3OC(CO)C(O)C(O)C3O)cc(O)c12 (stereo not drawn) [Quercimeritin]	3.69	24.9	6.85	52.3		could exert the anti-oxidation effect in protecting the tBHP-induced cell death			
O=C1O[C@H]([C@@H](O)CO)C(O)=C1O [Vit C, L-3-ketothreohexuronic acid lactone, reference compound]						protect the cells against oxidation significantly			
CC(C)(C)OO [tBHP, tertiary butyl hydroperoxide, reference compound]									200
